This test concerns Human pancreatic cancer cell line AsPC-1. Description: Measurement of AsPC-1 cell growth inhibition (AsPC-1 CGI). As to conditions: 96 h. The class given is cell-based. In outline: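 AsPC-1 cells in 15% FBS RPMI-1640 were exposed to test compound for 96 hours at 37° C, with CellTiter-Glo as endpoint.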

Structures are written as SMILES. Starred links: 1 amine or outer side, 2 acyl side, 3 side chain; linkers in the order of their positions; H or OH if unused. Positions of bridges follow the written chain, without caps; N, C: chain ends. Non-standard residues stand in square brackets, D forms with d. Residues, ends and D or L forms follow the SMILES beside them. *: point of attachment. hPhe(3,5-F2-4-CF3) = N[C@@H](CCc1cc(F)c(C(F)(F)F)c(F)c1)C(=O)O; hPhe(3-Cl-4-CF3) = N[C@@H](CCc1ccc(C(F)(F)F)c(Cl)c1)C(=O)O; NMePhe(4-CF3) = CN[C@@H](Cc1ccc(C(F)(F)F)cc1)C(=O)O; 3Oxa8azabicyclo(3.2.1)octane = C1CC2COCC1N2*; NMedβ3hAla = C[C@H](CC(=O)[*:2])N(C)[*:1]; NMeCha = CN[C@@H](CC1CCCCC1)C(=O)O; Hyp = O=C(O)[C@@H]1C[C@@H](O)CN1; NMeCba = CN[C@@H](CC1CCC1)C(=O)O; NMeChg = CN[C@H](C(=O)O)C1CCCCC1; NMeI = CC[C@H](C)[C@H](NC)C(=O)O; NMeT = CN[C@H](C(=O)O)[C@@H](C)O; NMeD = CN[C@@H](CC(=O)O)C(=O)O; NMeL = CN[C@@H](CC(C)C)C(=O)O; NMeV = CN[C@H](C(=O)O)C(C)C; d(β3hA) = C[C@@H](N)CC(=O)O; NMeS = CN[C@@H](CO)C(=O)O; NMeA = CN[C@@H](C)C(=O)O; Piperidide = C1CCN(*)CC1; Ac5c = NC1(C(=O)O)CCCC1; Aze = O=C(O)[C@@H]1CCN1; Isopentyl = CC(C)CC*; Sar = CNCC(=O)O

Broadly, the IC50 is the concentration at which inhibition is half-maximal. The low end stands for higher potency, the high end for lower potency. Consider `CC[C@H](C)[C@@H]1NC(=O)[C@H](CC2CCC2)N(C)C(=O)C[C@@H](C)NC(=O)[C@H](C(C)C)N(C)C(=O)C2(CCCC2)NC(=O)[C@@H]2CCCN2C(=O)[C@H](CCc2ccc(C(F)(F)F)c(Cl)c2)NC(=O)CN(C)C(=O)[C@H](CC2CCCCC2)N(C)C(=O)[C@@H]2CCN2C(=O)[C@H](C)N(C)C1=O` [Compound 455] (cyclo([Ac5c][NMeV][d(β3hA)][NMeCba]I[NMeA][Aze][NMeCha][Sar][hPhe(3-Cl-4-CF3)]P)), for which the IC50 lay in the range of 100 to 500 nM.

In turn, `CC[C@H](C)[C@@H]1NC(=O)[C@H](CC(C)C)N(C)C(=O)C[C@@H](C(=O)N2C3CCC2COC3)N(C)C(=O)[C@H]([C@@H](C)CC)N(C)C(=O)C2(CCCC2)NC(=O)[C@@H]2CCCN2C(=O)[C@H](CCc2ccc(C(F)(F)F)c(Cl)c2)NC(=O)CN(C)C(=O)[C@H](CC2CCCCC2)N(C)C(=O)[C@@H]2CCN2C(=O)[C@H](C)N(C)C1=O` [Compound 469] ([NMeL]I[NMeA][Aze][NMeCha][Sar][hPhe(3-Cl-4-CF3)]P[Ac5c][NMeI][NMeD]-{3Oxa8azabicyclo(3.2.1)octane}; lactam N-11) gave an IC50 of 20 to 50 nM.

The compound `CC[C@H](C)[C@@H]1NC(=O)[C@H](CC(C)C)N(C)C(=O)C[C@@H](C(=O)N2CCCCC2)N(C)C(=O)[C@H](C(C)C)N(C)C(=O)C2(CCCC2)NC(=O)[C@@H]2CCCN2C(=O)[C@H](CCc2ccc(C(F)(F)F)c(Cl)c2)NC(=O)CN(C)C(=O)[C@H](COCCC(C)C)N(C)C(=O)[C@@H]2CCN2C(=O)[C@H](C)N(C)C1=O` [Compound 470] ([NMeL]I[NMeA][Aze][NMeS](Isopentyl)[Sar][hPhe(3-Cl-4-CF3)]P[Ac5c][NMeV][NMeD]-Piperidide; lactam N-11) had an IC50 of 100 to 500 nM.

As to `CC[C@H](C)[C@@H]1NC(=O)[C@H](CC(C)C)N(C)C(=O)C[C@@H](C(=O)N2CCCCC2)N(C)C(=O)[C@H](C(C)C)N(C)C(=O)C2(CCCC2)NC(=O)[C@@H]2CCCN2C(=O)[C@H](CCc2ccc(C(F)(F)F)c(Cl)c2)NC(=O)CN(C)C(=O)[C@H](CC2CCCCC2)N(C)C(=O)[C@@H]2CCN2C(=O)[C@H](C)N(C)C1=O` [Compound 476] ([NMeL]I[NMeA][Aze][NMeCha][Sar][hPhe(3-Cl-4-CF3)]P[Ac5c][NMeV][NMeD]-Piperidide; lactam N-11), the IC50 was 100 to 500 nM.

As to `CCO[C@@H]1C[C@H]2C(=O)NC3(CCCC3)C(=O)N(C)[C@@H](C3CCCCC3)C(=O)N(C)[C@H](C)CC(=O)N(C)[C@@H](CC(C)C)C(=O)N[C@@H]([C@@H](C)CC)C(=O)N(C)[C@@H](C)C(=O)N3CC[C@H]3C(=O)N(C)[C@@H](Cc3ccc(C(F)(F)F)cc3)C(=O)N(C)CC(=O)N[C@@H](CCc3cc(F)c(C(F)(F)F)c(F)c3)C(=O)N2C1` [Compound 486] (cyclo([Ac5c][NMeChg][NMedβ3hAla][NMeL]I[NMeA][Aze][NMePhe(4-CF3)][Sar][hPhe(3,5-F2-4-CF3)][Hyp](Et))), the IC50 lay within 50 to 100 nM.

Take `CC[C@H](C)[C@@H]1NC(=O)[C@H](CC(C)C)N(C)C(=O)C[C@@H](C)NC(=O)[C@H](C(C)C)N(C)C(=O)C2(CCCC2)NC(=O)[C@@H]2CCCN2C(=O)[C@H](CCc2ccc(C(F)(F)F)c(Cl)c2)NC(=O)CN(C)C(=O)[C@H](CC2CCCCC2)N(C)C(=O)[C@@H]2CCN2C(=O)[C@H](C)N(C)C1=O` [Compound 488] (cyclo([Ac5c][NMeV][d(β3hA)][NMeL]I[NMeA][Aze][NMeCha][Sar][hPhe(3-Cl-4-CF3)]P)): the half-inhibitory concentration (IC50) was in the range of 100 to 500 nM.

As to `CC[C@H](C)[C@@H]1NC(=O)[C@H](CC(C)C)N(C)C(=O)C[C@@H](C(=O)N2CCCCC2)N(C)C(=O)[C@H](C(C)C)N(C)C(=O)C2(CCCC2)NC(=O)[C@@H]2CCCN2C(=O)[C@H](CCc2ccc(C(F)(F)F)c(Cl)c2)NC(=O)CN(C)C(=O)[C@H](CC2CCCCC2)N(C)C(=O)[C@@H]2CCN2C(=O)[C@H]([C@@H](C)O)N(C)C1=O` [Compound 496] ([NMeL]I[NMeT][Aze][NMeCha][Sar][hPhe(3-Cl-4-CF3)]P[Ac5c][NMeV][NMeD]-Piperidide; lactam N-11), the concentration for half-maximal inhibition (IC50) fell in the range of 100 to 500 nM.
